This is an account of results in ChEMBL document CHEMBL3879887, “Aminocyclohexyl ether compounds and uses thereof” (2007).

Structures are written as SMILES.

Test system in one data set: not listed separately
Briefly: Therapeutic index, ratio of neurotoxicity in iv dosed Sprague-Dawley rat assessed as total amount of drug infused at the point that partial or complete convulsions are first observed to 20 times ED50 for antiarrhythmic activity in iv dosed Sprague-Dawley rat coronary artery occlusion model. It is filed as organism-based. Particulars: Sprague-Dawley, in vivo, read-out: TI.
`Brc1ccccc1CCO[C@H]1CCCCC1N1CCOCC1` (stereo partly drawn): the selectivity ratio is 6.3.
For the compound `COc1ccc(CCO[C@H]2CCCCC2N2CC[C@@H](OCc3ccccc3)C2)cc1OC` (stereo partly drawn), the selectivity ratio was 2.6.
Turning to `COc1ccc(CCO[C@H]2CCCCC2N2CC[C@H](OCc3ccccc3)C2)cc1OC.Cl` (stereo partly drawn), the selectivity ratio worked out at 3.8.
On to `O=C1CCN([C@@H]2CCCCC2OCc2c(Cl)cccc2Cl)C1` (stereo partly drawn), for which the selectivity ratio amounted to 5.1.
As for `COc1ccc(CCCCO[C@H]2CCCCC2N2CCOCC2)cc1OC` (stereo partly drawn), the selectivity ratio amounted to 2.2.
The same measure, in the same setting: the same measure for `COc1ccc(CCOC2CCCCC2N2CCCC2)cc1OC.Cl` (stereo not drawn): 0.9 to 4.4; for `OC1CCN(C2CCCC[C@@H]2OCCn2ccc3ccccc32)C1` (stereo partly drawn): 9.4.
Still for that read-out and setting: the same measure for `Clc1cccc(Cl)c1CCOC1CCCC[C@H]1N1CCSC1` (stereo partly drawn): 2.5; for `Brc1ccc(CCO[C@H]2CCCCC2N2CCOCC2)cc1` (stereo partly drawn): 2.2; for `O[C@@H]1CCN(C2CCCC[C@@H]2OCCc2ccccc2C(F)(F)F)C1` (stereo partly drawn): 7.3.
With `OC1CCN(C2CCCC[C@@H]2OCCc2c(Cl)cccc2Cl)C1` (stereo partly drawn), the selectivity ratio worked out at 5.4.
Turning to `c1cc(CCO[C@H]2CCCCC2N2CCOCC2)c2ccsc2c1` (stereo partly drawn), the selectivity ratio turned out to be 2.7.
On to `c1ccc2cc(CCO[C@H]3CCCCC3N3CCOCC3)ccc2c1` (stereo partly drawn), for which the selectivity ratio was found to be 5.3.
For `FC(F)(F)c1ccccc1CCO[C@H]1CCCC[C@H]1N1CCOCC1` (racemic), the selectivity ratio stood at 3.6.
For the compound `O[C@@H]1CCN(C2CCCC[C@@H]2OCCc2cc3ccccc3o2)C1` (stereo partly drawn), the selectivity ratio is 3.3.
Regarding `Brc1ccc(OCCO[C@H]2CCCCC2N2CCOCC2)cc1` (stereo partly drawn), the selectivity ratio is 1.4.
Still for that read-out and setting: the same measure for `Clc1cccc(Cl)c1COC1CCCC[C@H]1N1CCOCC1` (stereo partly drawn): 2.7; for `c1ccc2c(CCO[C@H]3CCCCC3N3CCOCC3)csc2c1` (stereo partly drawn): 3.3; for `COc1cc(CCCO[C@H]2CCCCC2N2CC[C@@H](O)C2)cc(Cl)c1OC` (stereo partly drawn): 7.6.
Turning to `COc1ccc(CCO[C@H]2CCCCC2N2CCC3(C2)OCCO3)cc1OC` (stereo partly drawn), the selectivity ratio came out at 2.9.
On the same count and under the same terms, the figure for `COc1ccc(CCO[C@@H]2CCCC[C@H]2N2CC[C@@H](OC(C)=O)C2)cc1OC` is 1.8; for `CC(=O)OC1CCN([C@@H]2CCCCC2OCCc2cccc3ccccc23)C1` (stereo partly drawn) it is 2.3; for `COc1ccc(CCOC2CCCC[C@H]2N2CCC(=O)C2)cc1OC` (stereo partly drawn) it is 2.6.
With `Brc1cccc(CCO[C@H]2CCCCC2N2CCOCC2)c1` (stereo partly drawn), the selectivity ratio was determined as 3.3.
The same measure, in the same setting: the figure for `COc1ccc(CCO[C@H]2CCCCC2N2CC[C@H](OC(C)=O)C2)cc1OC` (stereo partly drawn) is 2.
For the compound `COc1ccc(CCOC2CCCC[C@H]2N2CCC(F)C2)cc1OC` (stereo partly drawn), the selectivity ratio is 2.3.
For the compound `COc1ccc(CCOC2CCCC[C@H]2N2CCN(C(=O)Cc3ccc(OC)c(OC)c3)CC2)cc1OC` (stereo partly drawn), the selectivity ratio was 11.1.
On the same count and under the same terms, the same measure for `OC1CCN(C2CCCC[C@@H]2OCCc2ccccc2Br)C1` (stereo partly drawn): 8.4.
As for `COc1ccc(CCO[C@H]2CCCCC2N2CCC[C@@H]2CO)cc1OC` (stereo partly drawn), the selectivity ratio turned out to be 8.9.
Regarding `c1ccc2c(CCO[C@H]3CCCCC3N3CCOCC3)cccc2c1` (stereo partly drawn), the selectivity ratio stood at 4.7.
Same read-out and setting: the same measure for `c1ccc2cc(OCCO[C@H]3CCCCC3N3CCOCC3)ccc2c1` (stereo partly drawn): 1.5.
For the compound `O=C1CCN(C2CCCC[C@@H]2OCC(c2ccccc2)c2ccccc2)C1` (stereo partly drawn), the selectivity ratio is 3.1.
With `O=C1CCN(C2CCCC[C@@H]2OCCc2c(Cl)cccc2Cl)C1` (stereo partly drawn), the selectivity ratio amounted to 8.6.
Regarding `Clc1ccc(CCO[C@H]2CCCCC2N2CCOCC2)cc1Cl` (stereo partly drawn), the selectivity ratio stood at 3.9.

Staying with this data set, now noted: in vivo.
On to `COc1ccc(CCO[C@H]2CCCCC2N2CCOCC2)cc1OC` (stereo partly drawn), for which the TI amounted to 1.4.
Regarding `Cl.OC1CCN([C@@H]2CCCC[C@@H]2OCCc2cccc3ccccc23)C1` (stereo partly drawn), the TI worked out at 8.8.
`COc1ccc(CCOC2CCCC[C@H]2N2CCOCC2)cc1OC.Cl` (stereo partly drawn): the TI amounted to 3.8.
The same measure, in the same setting: the same measure for `Cl.OC1CCN(C2CCCC[C@@H]2OCCc2cccc3ccccc23)C1` (stereo partly drawn): 4.3.

Test system in another data set: not listed separately
Briefly: Neurotoxicity in iv dosed Sprague-Dawley rat assessed as total amount of drug infused at the point that partial or complete convulsions are first observed. Particulars: in vivo. It is filed as toxicity, organism-based.
On to `COc1ccc(CCOC2CCCCC2N2CCCC2)cc1OC.Cl` (stereo not drawn), for which the Activity was in the range of 44.4 to 118 µmol/kg.

The next data set concerns Rattus norvegicus. Briefly: Antiarrhythmic activity in iv dosed Sprague-Dawley rat coronary artery occlusion model administered via infusion for 5 mins starting 15 post surgery followed by coronary artery occlusion measured for 15 mins by electrocardiogram. It is filed as functional.
Conditions: not given
Usually ED50 stands for the dose at which the effect has come halfway, by size or by number of responders. High values mean a need for a large dose, low ones an effect at a small dose. The compound `COc1ccc(CCOC2CCCCC2N2CCCC2)cc1OC.Cl` (stereo not drawn) displayed an ED50 of 1.33 to 2.4 µmol/kg/min.

Test system in the next data set: not listed separately
As to the kind of experiment: Neurotoxicity in iv dosed Sprague-Dawley rat assessed as minimum infusion rate of the compound require for partial and complete convulsion. It is filed as toxicity, organism-based. Conditions: in vivo.
For `COc1ccc(CCO[C@H]2CCCCC2N2CC[C@H](OCc3ccccc3)C2)cc1OC.Cl` (stereo partly drawn), the Activity is 8 µmol/kg/min.
Turning to `COc1ccc(CCOC2CCCCC2N2CCCC2)cc1OC.Cl` (stereo not drawn), the Activity is 8 to 21.3 µmol/kg/min.

The test system of the next data set is Canis familiaris. As to the kind of experiment: Inhibition of atrial fibrillation in iv dosed Mongrel dog vagal-atrial fibrillation model administered via infusion pump over 5 mins by electrophysiological method. It is filed as functional, Canis lupus familiaris.
Conditions: not given
Consider `O=C(NCC1CCCCN1)c1cc(OCC(F)(F)F)ccc1OCC(F)(F)F` (stereo not drawn) [FLECAINIDE], for which the ED lay in the range of 1 to 10 µmol/kg.
